{
  "source": "patent US20130295692A1",
  "about": "“MEANS AND METHODS FOR PREDICTING DIABETES” (METANOMICS HEALTH GMBH, priority 2010, published 2013)",
  "tested_on": "healthy rat plasma glyoxylate concentrations",
  "experiment": "Rats treated with anti-diabetic drug metformin: 28-day oral gavage study, plasma metabolite profiling of glyoxylate",
  "assay_type": "in vivo",
  "conditions": "for Ratio treatment/control of plasma glyoxylate: fasted plasma",
  "method": "Two groups of each 5 male and female rats was dosed once daily with the indicated compounds with a different dose per group (see below) over 28 days.\nEach dose group in the studies consisted of five rats per sex. Additional groups of each 15 male and 15 female animals served as controls. Before starting the treatment period, animals, which were 62-64 days old when supplied, were acclimatized to the housing and environmental conditions for 7 days. All animals of the animal population were kept under the same constant temperature (20-24±3° C.) and the same constant humidity (30-70%). The animals of the animal population were fed ad libitum. The food to be used was essentially free of chemical or microbial contaminants. Drinking water was also offered ad libitum. Accordingly, the water was free of chemical and microbial contaminants as laid down in the European Drinking Water Directive 98/83/EG. The illumination period was 12 hours light followed by 12 hours darkness (12 hours light, from 6:00 to 18:00, and 12 hours darkness, from 18:00 to 6:00). The studies were performed in an AAALAC-approved laboratory in accordance with the German Animal Welfare Act and the European Council Directive 86/609/EE. The test system was arranged according to the OECD 407 guideline for the testing of chemicals for repeated dose 28-day oral toxicity study in rodents. The test substance was dosed and administered as follows:\nMetformin hydrochloride was administered by gavage (high dose group at 1 g/kg body weight, low dose group at 0.2 g/kg body weight), in drinking water containing 0.5% Carboxymethyl cellulose (Tylose CB30000) (administration volume: 10 ml/kg body weight).\nIn the morning of day 7, 14, and 28, blood was taken from the retroorbital venous plexus from fasted anaesthetized animals. From each animal, 1 ml of blood was collected with EDTA as anticoagulant. The samples were centrifuged for generation of plasma. All plasma samples were covered with a N2 atmosphere and then stored at −80° C. until analysis.\nFor mass spectrometry-based metabolite profiling analyses plasma samples were extracted and a polar and a non-polar (lipid) fraction was obtained. For GC-MS analysis, the non-polar fraction was treated with methanol under acidic conditions to yield the fatty acid methyl esters. Both fractions were further derivatised with O-methyl-hydroxyamine hydrochloride and pyridine to convert Oxo-groups to O-methyloximes and subsequently with a silylating agent before analysis. In LC-MS analysis, both fractions were reconstituted in appropriate solvent mixtures. HPLC was performed by gradient elution on reversed phase separation columns. Mass spectrometric detection which allows target and high sensitivity MRM (Multiple Reaction Monitoring) profiling in parallel to a full screen analysis was applied as described in WO2003073464.\nFollowing comprehensive analytical validation steps, the data for each analyte were normalized against data from pool samples. These samples were run in parallel through the whole process to account for process variability. The significance of treatment group values specific for sex, treatment duration and metabolite was determined by comparing means of the treated groups to the means of the respective untreated control groups using WELCH-test and quantified with treatment ratios versus control and p-values.",
  "note": "Structures can show the parent of a compound that is named as a salt.",
  "data": [
    {"smiles": "CN(C)C(=N)NC(=N)N", "note": "[Metformin hydrochloride, N,N-dimethylimidodicarbonimidic diamide]", "values": [
      {"measurement": "Ratio treatment/control of plasma glyoxylate", "setting": "High Dose 1 g/kg body weight by gavage once daily, female rats, day 7 (f7)", "value": 0.82},
      {"measurement": "Ratio treatment/control of plasma glyoxylate", "setting": "High Dose 1 g/kg body weight by gavage once daily, female rats, day 14 (f14)", "value": 0.58},
      {"measurement": "Ratio treatment/control of plasma glyoxylate", "setting": "High Dose 1 g/kg body weight by gavage once daily, female rats, day 28 (f28)", "value": 0.52},
      {"measurement": "Ratio treatment/control of plasma glyoxylate", "setting": "High Dose 1 g/kg body weight by gavage once daily, male rats, day 7 (m7)", "value": 0.22},
      {"measurement": "Ratio treatment/control of plasma glyoxylate", "setting": "High Dose 1 g/kg body weight by gavage once daily, male rats, day 14 (m14)", "value": 0.29},
      {"measurement": "Ratio treatment/control of plasma glyoxylate", "setting": "High Dose 1 g/kg body weight by gavage once daily, male rats, day 28 (m28)", "value": 0.58},
      {"measurement": "Ratio treatment/control of plasma glyoxylate", "setting": "Low Dose 0.2 g/kg body weight by gavage once daily, female rats, day 7 (f7)", "value": 1.01},
      {"measurement": "Ratio treatment/control of plasma glyoxylate", "setting": "Low Dose 0.2 g/kg body weight by gavage once daily, female rats, day 14 (f14)", "value": 0.72},
      {"measurement": "Ratio treatment/control of plasma glyoxylate", "setting": "Low Dose 0.2 g/kg body weight by gavage once daily, female rats, day 28 (f28)", "value": 0.64},
      {"measurement": "Ratio treatment/control of plasma glyoxylate", "setting": "Low Dose 0.2 g/kg body weight by gavage once daily, male rats, day 7 (m7)", "value": 0.59},
      {"measurement": "Ratio treatment/control of plasma glyoxylate", "setting": "Low Dose 0.2 g/kg body weight by gavage once daily, male rats, day 14 (m14)", "value": 0.65},
      {"measurement": "Ratio treatment/control of plasma glyoxylate", "setting": "Low Dose 0.2 g/kg body weight by gavage once daily, male rats, day 28 (m28)", "value": 0.44},
      {"measurement": "Effect on glyoxylate concentrations in rat model system (summary in words)", "setting": "rat model system, summary of Table 8", "value": "capable of reducing glyoxylate concentrations"}
    ]}
  ]
}
